Results from patent US20110039277A1, “Methods of Labeling Proteins” (priority 2008, published 2011).
Entries after “also recorded” stand apart in the source; their conditions may differ.

Tests used:
thioredoxin-1 (trx-1) [1] = assay: FRET between thiol-bound CPM and Alexa488-labeled trx-1 antibody in cells; assay type: cell-based; details: tBH-treated cells vs baseline
Procedure: Histological labeling of oxidized thiols. Brains were fixed in 4% paraformaldehyde and processed as described (Betarbet, R.; Sherer, T. B.; MacKenzie, G.; Garcia-Osuna, M.; Panov, A. V.; Greenamyre, J. T. Chronic systemic pesticide exposure reproduces features of Parkinson's disease. Nat Neurosci 3:1301-1306; 2000). After cutting with a freezing microtome, sections were treated immediately in alkylating buffer (100 mM IAM, 100 mM NEM, TrisHCl, pH 6.8) to block free thiols. For cell culture studies, cells were seeded and cultured on coverslips, then fixed in 4% paraformaldehyde, 0.02% Triton-X100 supplemented with 100 mM IAM, 100 mM NEM to block free thiols. After three washes in PBS—10 minutes at room temperature—disulfides were reduced with 25 mM TCEP in PBS for 20 minutes. TCEP was omitted in the control reaction. […]
Direct FRET was detected by reading the acceptor emission (FITC derivative conjugated antibody) at 520 nm while exciting the donor (CPM) with the 405 nm laser. Alternatively, FRET was detected by acquiring the donor (CPM) emission before and after photobleaching of the acceptor fluorophore (Alexa488) with the 488 nm laser. FRET efficiency (Feff) was calculated by the confocal software (version 1.5) according to the equation Feff=1−(empre/empost), where Feff=FRET efficiency, empre=donor emission prebleaching, empost=donor emission post bleaching.

[2] = tested on: SH-SY5Y human neuroblastoma cells; assay: Histochemical detection of oxidized thiols (disulfides) with CPM in cells; assay type: cell-based; details: tBH 1 mM vs vehicle control
Procedure: (§1) Histological labeling of oxidized thiols. Brains were fixed in 4% paraformaldehyde and processed as described (Betarbet, R.; Sherer, T. B.; MacKenzie, G.; Garcia-Osuna, M.; Panov, A. V.; Greenamyre, J. T. Chronic systemic pesticide exposure reproduces features of Parkinson's disease. Nat Neurosci 3:1301-1306; 2000). After cutting with a freezing microtome, sections were treated immediately in alkylating buffer (100 mM IAM, 100 mM NEM, TrisHCl, pH 6.8) to block free thiols. For cell culture studies, cells were seeded and cultured on coverslips, then fixed in 4% paraformaldehyde, 0.02% Triton-X100 supplemented with 100 mM IAM, 100 mM NEM to block free thiols. After three washes in PBS—10 minutes at room temperature—disulfides were reduced with 25 mM TCEP in PBS for 20 minutes. TCEP was omitted in the control reaction. The samples were labeled with CPM (0.5 mM final) in TrisHCl (0.1 M, pH 6.8) and then washed three times, for 10 minutes, in PBS.
Images were acquired using a laser scanning confocal microscope. The microscope was equipped with a spectral detector technology that provides precise wavelength separation of the emitted light, preventing light leakage between different fluorophores. The following detection ranges were used for each fluorophore: 450 nm-480 nm for UV probes; 515 nm-535 nm for Alexa488; 560 nm-574 nm for Cy3. […]

thioredoxin-1 (trx-1) [3] = assay: Redox western blot (10 kDa PEG-maleimide) of thioredoxin-1 in cells; assay type: cell-based; details: low millimolar concentrations of tBH
Procedure: Western blot analysis to detect proteins with oxidized cysteines. Cells were lysed in alkylating buffer (0.1M TrisHCl pH 6.8, 1% SDS, 100 mM IAM, 100 mM NEM). The lysate was sonicated on ice to disrupt high molecular weight DNA and incubated 30 minutes at room temperature to allow total alkylation of free Cys residues. 200 μg of alkylated proteins were precipitated with 5 volumes of ice-cold acetone and resuspended in 50 microliters of Tris-SDS buffer (0.1M TrisHCl, pH 7.4, 1% SDS). Disulfides were reduced by adding TCEP 5 mM final concentration. The samples were incubated 20 minutes at room temperature to allow complete reduction of disulfides to thiols. TCEP was removed with Micro Bio-spin Chromatography columns 6 (BIORAD, Hercules, Calif.). After the filtration step, the samples were in about 50 μL of 10 mM TrisHCl pH 7.4 (volume was adjusted to 50 μL as necessary). SDS was added to a 1% final concentration.
To label the previously oxidized (and now reduced) cysteines, polyethylene-glycol-conjugated maleimide (molecular weight 10 kDa, SunBio, Orinda, Calif.) was added to 50 micrograms of proteins, 1 mM final concentration, from a 10 mM stock in Tris-SDS buffer. After 1 hour incubation at room temperature, samples were precipitated with ice cold acetone and resuspended in 50 μL of SDS electrophoresis loading buffer. 10 μL (about 10 μg) were used for western blot analysis. […]

[4] = tested on: human neuroblastoma cells; assay: Fluorescent labeling of protein carbonyls (FITC-hydrazide) in rotenone-treated cells; assay type: cell-based; details: 50 nM rotenone, 24 hours, vs vehicle-treated cells
Procedure: Cells are fixed in cold methanol for 10 minutes at −20° C. Paraformaldehyde and other […] group-containing (and therefore carbonyl group-containing) fixatives should be avoided. The method can be successfully applied to tissues as well.
Carbonyls are labeled with fluorescein-conjugated hydrazide (FITC-NN, FIG. 1, Molecular Probes, cat #F-121). F121 is prepared fresh in dimethyl-formamide. As the reaction between the hydrazine and the carbonyls occurs in acidic environment, the labeling is carried out in 50 mM sodium acetate (pH 4). FITC-NN is used 2 microM final; incubation is carried on 2 hours at room temperature.
Samples are washed in phosphate buffer solution (PBS) for 5 minutes; this step is repeated three times.
From this step onward, a classical immunohistochemistry staining can be performed to detect proteins of interest.
Images are acquired with a laser scanning confocal microscope.

substantia nigra = assay: Imaging of carbonyls in substantia nigra of rotenone-treated animals; assay type: in vivo; details: rotenone-treated animal vs control animal
From the text: To detect carbonyls in fixed slices and perform microscopy studies, fluorescein-conjugated hydrazine is used (FITC-hydrazine, please see FIG. 19). As a positive control, carbonyl formation is induced by metal-catalyzed oxidation, treating the samples with iron (Fe^3+) and ascorbate (Amici, A, Levine, R L, Tsai, L and Stadtman, E R, (1989) Conversion of amino acid residues in proteins and amino acid homopolymers to carbonyl derivatives by metal-catalyzed oxidation reactions. J Biol Chem 264: 3341-6 and Halliwell, B and Gutteridge, J M, (1990) Role of free radicals and catalytic metal ions in human disease: an overview. Methods Enzymol 186: 1-85). In the confocal studies, a negative control can be performed preincubating the fixed slices with an excess of DNPH.
Protein carbonyls. Another oxidative modification of proteins is carbonyl formation. Typically, carbonyls are assayed by reacting protein homogenates with hydrazine compounds (e.g., dinitrophenylhydrazine; DNPH) and then measuring the reaction product spectrophotometrically, or with antibody-based techniques. We have used a fluorescent hydrazine compound to directly label carbonyls (FIG. 19). As with thiol labeling, this technique is amenable to FRET so that candidate proteins can be examined for carbonyl content and changes therein in pesticide intoxication.

[5] = tested on: dopaminergic neurons of the substantia nigra; assay: Histological labeling of oxidized thiols in substantia nigra of rotenone-treated rats; assay type: in vivo, Lewis rats; details: chronic rotenone treatment vs control animal
Procedure: as §1
Following the thiol labeling, immunohistochemistry was performed according to standard procedures. Briefly, after a blocking step in 10% serum, samples were incubated over-night with primary antibody (tyrosine hydroxylase, Mab318, Chemicon, Temecula, Calif., 1:2000; OX42, MCA 275G AbD Serotec, Oxford, UK, 1:150; GFAP, Mab 3402, Chemicon, Temecula, Calif., 1:1000). Fluorescently labeled secondary antibodies were used for detection. […]

dopaminergic neurons = assay: Tyrosine hydroxylase, transferrin and oxidized thiol imaging in dopaminergic neurons treated with rotenone; assay type: cell-based; details: cells treated with rotenone vs control
transferrin = assay: Reducing and non-reducing Western blots of transferrin in substantia nigra; assay type: in vivo; details: chronic rotenone treatment vs control animal
From the text: In the lower panel, left and right, a loading control (39 kDa subunit of mitochondrial complex I) ensures that the initial amount of protein was the equal for all the lanes.

[6] = tested on: mitochondrial proteins containing oxidized thiols; assay: Thiol-sepharose affinity purification of oxidized mitochondrial proteins from brain regions of rotenone-treated rats; assay type: in vivo, Lewis rats; details: rotenone animals vs control
From the text: Preparation of affinity resin. Activated thiol-sepharose resin 4B (Sigma, St. Louis, Mo., USA) was used in previous studies to purify thiol-containing proteins (Egorov, T. A.; Svenson, A.; Ryden, L.; Carlsson, J. A rapid and specific method for isolation of thiol-containing peptides from large proteins by thiol-disulfide exchange on a solid support. Proc Natl Acad Sci USA 72:3029-3033; 1975); the resin extent of binding was 1 micromol of thiols per mL of medium. The resin rehydrated in milliQ-grade distilled water, 30 minutes, gently shaking at 4° C. […]
In the first technique (FIG. 20), a starting sample (e.g., purified mitochondria from the ventral midbrain of control and rotenone-treated rats) is homogenized and then free thiols are alkylated. […] At this point, the sample can be run over a thiol affinity column and the eluate can be analyzed by SDS-PAGE and Coomassie staining. In an alternative strategy, after the reduction the sample can be reacted with ICAT (isotope coded affinity tag) reagents for mass spectrometry (Gygi, S P, Rist, B, Gerber, S A, Turecek, F, Gelb, M H and Aebersold, R, (1999) Quantitative analysis of complex protein mixtures using isotope-coded affinity tags. Nat Biotechnol 17: 994-9).

Hsp60 = assay: FRET by acceptor photobleaching between FITC-NN carbonyl label and Cy3 anti-Hsp60 antibody in cells; assay type: cell-based; details: rotenone-treated cells
From the text: Anti-Hsp60 (Stressgen, used at 1:500) was conjugated with Cy3. The procedure can be carried out in a 96-well plate, which can be analyzed with a micro-plate spectrofluorometer. FRET between FITC-NN and a Cy3-labeled specific antibody can be studied to determine if the two fluorophores are in close proximity (<50 Å) and therefore if the protein of interest is oxidized. […] First, the acceptor fluorophore is photobleached over four cycles. In FIG. 3, Cy3 was the acceptor fluorophore and the protein of interest was Hsp60, where Cy3 conjugated with anti-Hsp60 antibody. Second, the emission of the acceptor fluorophore and of the donor fluorophore are determined and compared. If a significant increase in the donor emission is observed after photobleaching the acceptor fluorophore, then the two fluorophores are determined to be in close proximity. […] Therefore, the two fluorophores are in close proximity and indicate that the protein of interest, here Hsp60, is oxidized.

Structure (SMILES)	FRET between CPM and Alexa488 trx-1 antibody (thiol oxidation of Trx-1) (thioredoxin-1 (trx-1) [1])	oxidized thiols (disulfides) labeling [2]	thiol oxidation (disulfide formation) in trx-1 by redox western blot (thioredoxin-1 (trx-1) [3])	carbonyls (green fluorescence) [4]	carbonyls in substantia nigra (substantia nigra)	oxidized thiols in nigrostriatal dopaminergic (TH-positive) neurons [5]	transferrin (trf) level, colocalized with oxidized thiols by FRET (dopaminergic neurons)	oxidized transferrin form in non-reducing gel (transferrin)	oxidized mitochondrial proteins eluted from thiol affinity chromatography, striatum ([6]; striata)	oxidized mitochondrial proteins eluted from thiol affinity chromatography, substantia nigra ([6]; substantia nigra (ventral midbrain))	FITC (donor) emission after photobleaching of Cy3 acceptor; indicates Hsp60 is oxidized (Hsp60)
CC(C)(C)OO [tBH, tert-butyl-hydroperoxide]	clear increase in the signal; also recorded: marked increase in direct FRET	remarkable increase in disulfides; also recorded: dramatic increase of thiol labeling	quickly induced the formation of disulfides in trx-1; also recorded: induced thiol oxidation in thioredoxin-1	–	–	–	–	–	–	–	–
C=C(C)[C@H]1Cc2c(ccc3c2O[C@@H]2COc4cc(OC)c(OC)cc4[C@@H]2C3=O)O1 [rotenone]	–	–	–	detectable increase; also recorded: large increase in carbonyls	marked increase in carbonyls	remarkable and very selective increase in oxidized thiols; also recorded: marked increase in oxidized thiols	accumulation of transferrin	higher molecular weight form	No major differences	marked increase in thiol oxidation; also recorded: dramatic increase in oxidized proteins; also recorded: striking increase of oxidized proteins	significant increase in FITC emission
